This note sets out measurements from patent US4304679A, “Detergent product containing deodorant compositions” (priority 1978, dated 1981).

The target of the test is T1, lipoxidase (ECl.13.1.13) (Glycine max, UniProt P08170).
T1 sequence (P08170 1-839): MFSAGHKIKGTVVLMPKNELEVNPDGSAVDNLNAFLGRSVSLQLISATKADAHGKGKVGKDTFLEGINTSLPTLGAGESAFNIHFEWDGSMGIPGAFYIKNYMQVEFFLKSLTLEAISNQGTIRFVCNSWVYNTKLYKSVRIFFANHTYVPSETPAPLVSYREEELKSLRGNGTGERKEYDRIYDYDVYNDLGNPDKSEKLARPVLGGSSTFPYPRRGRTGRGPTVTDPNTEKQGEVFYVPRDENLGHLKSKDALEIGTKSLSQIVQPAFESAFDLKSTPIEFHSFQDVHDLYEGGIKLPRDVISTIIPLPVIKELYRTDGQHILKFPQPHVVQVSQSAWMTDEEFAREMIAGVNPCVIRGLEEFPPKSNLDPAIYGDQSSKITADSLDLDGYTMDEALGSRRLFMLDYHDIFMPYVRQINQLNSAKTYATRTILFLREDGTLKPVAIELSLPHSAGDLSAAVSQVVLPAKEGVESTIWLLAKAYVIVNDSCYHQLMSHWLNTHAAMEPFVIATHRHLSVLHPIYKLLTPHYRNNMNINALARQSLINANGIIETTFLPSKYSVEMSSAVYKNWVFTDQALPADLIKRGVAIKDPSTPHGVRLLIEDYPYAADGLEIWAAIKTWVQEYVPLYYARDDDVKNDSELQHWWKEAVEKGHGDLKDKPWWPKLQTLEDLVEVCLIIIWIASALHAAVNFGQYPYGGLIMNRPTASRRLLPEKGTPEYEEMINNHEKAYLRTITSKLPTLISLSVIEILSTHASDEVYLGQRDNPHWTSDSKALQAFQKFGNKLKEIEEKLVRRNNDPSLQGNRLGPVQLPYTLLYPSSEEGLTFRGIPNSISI
Put plainly: Lipoxidase test: inhibition of the oxidation of linoleic acid by lipoxidase. Type of test: biochemical. The settings on record: test substrate made with 0.5% by weight solution of material in ethanol; pH 9.0 borate buffer; 234 nm.

As for Dimyrcetol, the “LIC (lipoxidase inhibiting capacity, % inhibition)” value stood at 16%.

With Tetrahydromuguol, the “LIC (lipoxidase inhibiting capacity, % inhibition)” value came out at 24%.

Turning to i-Nonyl acetate, the “LIC (lipoxidase inhibiting capacity, % inhibition)” value is given as 50%. With i-Nonyl formate the figure was 19%.
